Data as given in PubChem BioAssay (NCI).
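Following 48 hours of exposure in 96-well plates, responses at five concentrations were used to interpolate endpoints linearly. GI50 marks 50% less growth. TGI: total growth inhibition.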

Experiments:
Assay in all cases: DTP human tumour cell line panel, 48 h
786-0 renal = test system: 786-0 renal
A498 renal = test system: A498 renal
A549 NSCLC = test system: A549 NSCLC
ACHN renal = test system: ACHN renal
BT-549 breast = test system: BT-549 breast
CAKI-1 renal = test system: CAKI-1 renal
CCRF-CEM leukemia = test system: CCRF-CEM leukemia
COLO 205 colon = test system: COLO 205 colon
DU-145 prostate = test system: DU-145 prostate
EKVX NSCLC = test system: EKVX NSCLC
HCC-2998 colon = test system: HCC-2998 colon
HCT-116 colon = test system: HCT-116 colon
HCT-15 colon = test system: HCT-15 colon
HL-60(TB) leukemia = test system: HL-60(TB) leukemia
HOP-62 NSCLC = test system: HOP-62 NSCLC
HOP-92 NSCLC = test system: HOP-92 NSCLC
HS 578T breast = test system: HS 578T breast
HT29 colon = test system: HT29 colon
IGROV1 ovarian = test system: IGROV1 ovarian
K-562 leukemia = test system: K-562 leukemia
KM12 colon = test system: KM12 colon
LOX IMVI melanoma = test system: LOX IMVI melanoma
M14 melanoma = test system: M14 melanoma
MALME-3M melanoma = test system: MALME-3M melanoma
MCF7 breast = test system: MCF7 breast
MDA-MB-231 breast = test system: MDA-MB-231 breast
MDA-MB-435 = test system: MDA-MB-435
MOLT-4 leukemia = test system: MOLT-4 leukemia
NCI-H226 lung = test system: NCI-H226 lung
NCI-H23 lung = test system: NCI-H23 lung
NCI-H460 lung = test system: NCI-H460 lung
NCI-H522 lung = test system: NCI-H522 lung
NCI/ADR-RES ovarian = test system: NCI/ADR-RES ovarian
OVCAR-3 ovarian = test system: OVCAR-3 ovarian
OVCAR-4 ovarian = test system: OVCAR-4 ovarian
OVCAR-5 ovarian = test system: OVCAR-5 ovarian
OVCAR-8 ovarian = test system: OVCAR-8 ovarian
PC-3 prostate = test system: PC-3 prostate
RPMI-8226 leukemia = test system: RPMI-8226 leukemia
RXF 393 renal = test system: RXF 393 renal
SF-268 CNS = test system: SF-268 CNS
SF-295 CNS = test system: SF-295 CNS
SF-539 CNS = test system: SF-539 CNS
SK-MEL-2 melanoma = test system: SK-MEL-2 melanoma
SK-MEL-28 melanoma = test system: SK-MEL-28 melanoma
SK-MEL-5 melanoma = test system: SK-MEL-5 melanoma
SK-OV-3 ovarian = test system: SK-OV-3 ovarian
SN12C renal = test system: SN12C renal
SNB-19 CNS = test system: SNB-19 CNS
SNB-75 CNS = test system: SNB-75 CNS
SR leukemia = test system: SR leukemia
SW-620 colon = test system: SW-620 colon
T-47D breast = test system: T-47D breast
TK-10 renal = test system: TK-10 renal
U251 CNS = test system: U251 CNS
UACC-257 melanoma = test system: UACC-257 melanoma
UACC-62 melanoma = test system: UACC-62 melanoma
UO-31 renal = test system: UO-31 renal

Compound: CN(c1ccc(C#N)c(Cl)c1)C1CCC(NC(=O)c2ccc(N3CCN(C4CN(c5ccc6c(c5)C(=O)N(C5CCC(=O)NC5=O)C6=O)C4)CC3)cc2)CC1 (stereo unspecified)
- GI50 (786-0 renal): > 100 µM
- TGI (786-0 renal): > 100 µM
- GI50 (A498 renal): > 100 µM
- TGI (A498 renal): > 100 µM
- GI50 (A549 NSCLC): > 100 µM
- TGI (A549 NSCLC): > 100 µM
- GI50 (ACHN renal): > 100 µM
- TGI (ACHN renal): > 100 µM
- GI50 (BT-549 breast): 98.6 µM
- TGI (BT-549 breast): > 100 µM
- GI50 (CAKI-1 renal): > 100 µM
- TGI (CAKI-1 renal): > 100 µM
- GI50 (CCRF-CEM leukemia): > 100 µM
- TGI (CCRF-CEM leukemia): > 100 µM
- GI50 (COLO 205 colon): > 100 µM
- TGI (COLO 205 colon): > 100 µM
- GI50 (DU-145 prostate): > 100 µM
- TGI (DU-145 prostate): > 100 µM
- GI50 (EKVX NSCLC): > 100 µM
- TGI (EKVX NSCLC): > 100 µM
- GI50 (HCC-2998 colon): > 100 µM
- TGI (HCC-2998 colon): > 100 µM
- GI50 (HCT-116 colon): > 100 µM
- TGI (HCT-116 colon): > 100 µM
- GI50 (HCT-15 colon): > 100 µM
- TGI (HCT-15 colon): > 100 µM
- GI50 (HL-60(TB) leukemia): > 100 µM
- TGI (HL-60(TB) leukemia): > 100 µM
- GI50 (HOP-62 NSCLC): > 100 µM
- TGI (HOP-62 NSCLC): > 100 µM
- GI50 (HOP-92 NSCLC): 10.2 µM
- TGI (HOP-92 NSCLC): 99.8 µM
- GI50 (HS 578T breast): > 100 µM
- TGI (HS 578T breast): > 100 µM
- GI50 (HT29 colon): > 100 µM
- TGI (HT29 colon): > 100 µM
- GI50 (IGROV1 ovarian): > 100 µM
- TGI (IGROV1 ovarian): > 100 µM
- GI50 (K-562 leukemia): > 100 µM
- TGI (K-562 leukemia): > 100 µM
- GI50 (KM12 colon): > 100 µM
- TGI (KM12 colon): > 100 µM
- GI50 (LOX IMVI melanoma): > 100 µM
- TGI (LOX IMVI melanoma): > 100 µM
- GI50 (M14 melanoma): 21.7 µM
- TGI (M14 melanoma): 64.3 µM
- GI50 (MALME-3M melanoma): 48.8 µM
- TGI (MALME-3M melanoma): > 100 µM
- GI50 (MCF7 breast): > 100 µM
- TGI (MCF7 breast): > 100 µM
- GI50 (MDA-MB-231 breast): 18.9 µM
- TGI (MDA-MB-231 breast): 41.6 µM
- GI50 (MDA-MB-435): > 100 µM
- TGI (MDA-MB-435): > 100 µM
- GI50 (MOLT-4 leukemia): > 100 µM
- TGI (MOLT-4 leukemia): > 100 µM
- GI50 (NCI-H226 lung): > 100 µM
- TGI (NCI-H226 lung): > 100 µM
- GI50 (NCI-H23 lung): > 100 µM
- TGI (NCI-H23 lung): > 100 µM
- GI50 (NCI-H460 lung): > 100 µM
- TGI (NCI-H460 lung): > 100 µM
- GI50 (NCI-H522 lung): > 100 µM
- TGI (NCI-H522 lung): > 100 µM
- GI50 (NCI/ADR-RES ovarian): > 100 µM
- TGI (NCI/ADR-RES ovarian): > 100 µM
- GI50 (OVCAR-3 ovarian): > 100 µM
- TGI (OVCAR-3 ovarian): > 100 µM
- GI50 (OVCAR-4 ovarian): > 100 µM
- TGI (OVCAR-4 ovarian): > 100 µM
- GI50 (OVCAR-5 ovarian): 47.6 µM
- TGI (OVCAR-5 ovarian): > 100 µM
- GI50 (OVCAR-8 ovarian): > 100 µM
- TGI (OVCAR-8 ovarian): > 100 µM
- GI50 (PC-3 prostate): > 100 µM
- TGI (PC-3 prostate): > 100 µM
- GI50 (RPMI-8226 leukemia): > 100 µM
- TGI (RPMI-8226 leukemia): > 100 µM
- GI50 (RXF 393 renal): > 100 µM
- TGI (RXF 393 renal): > 100 µM
- GI50 (SF-268 CNS): > 100 µM
- TGI (SF-268 CNS): > 100 µM
- GI50 (SF-295 CNS): > 100 µM
- TGI (SF-295 CNS): > 100 µM
- GI50 (SF-539 CNS): > 100 µM
- TGI (SF-539 CNS): > 100 µM
- GI50 (SK-MEL-2 melanoma): > 100 µM
- TGI (SK-MEL-2 melanoma): > 100 µM
- GI50 (SK-MEL-28 melanoma): > 100 µM
- TGI (SK-MEL-28 melanoma): > 100 µM
- GI50 (SK-MEL-5 melanoma): > 100 µM
- TGI (SK-MEL-5 melanoma): > 100 µM
- GI50 (SK-OV-3 ovarian): > 100 µM
- TGI (SK-OV-3 ovarian): > 100 µM
- GI50 (SN12C renal): > 100 µM
- TGI (SN12C renal): > 100 µM
- GI50 (SNB-19 CNS): > 100 µM
- TGI (SNB-19 CNS): > 100 µM
- GI50 (SNB-75 CNS): > 100 µM
- TGI (SNB-75 CNS): > 100 µM
- GI50 (SR leukemia): > 100 µM
- TGI (SR leukemia): > 100 µM
- GI50 (SW-620 colon): > 100 µM
- TGI (SW-620 colon): > 100 µM
- GI50 (T-47D breast): > 100 µM
- TGI (T-47D breast): > 100 µM
- GI50 (TK-10 renal): > 100 µM
- TGI (TK-10 renal): > 100 µM
- GI50 (U251 CNS): 61.2 µM
- TGI (U251 CNS): > 100 µM
- GI50 (UACC-257 melanoma): > 100 µM
- TGI (UACC-257 melanoma): > 100 µM
- GI50 (UACC-62 melanoma): > 100 µM
- TGI (UACC-62 melanoma): > 100 µM
- GI50 (UO-31 renal): > 100 µM
- TGI (UO-31 renal): > 100 µM
